Test results taken from PubChem BioAssay (NCI).
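Growth conditions: 96-well plates. Treatment: test compound, 48 hours, 5 concentrations. Analysis: linear interpolation between bracketing concentrations; unreached endpoints set to highest concentration. TGI is the concentration that stops growth completely.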

Experiments:
Test in all cases: NCI anticancer screen, dose series, 48 h
A498 renal = tested on: A498 renal
HCC-2998 colon = tested on: HCC-2998 colon
DLD-1 colon = tested on: DLD-1 colon
DMS 114 small cell lung = tested on: DMS 114 small cell lung
SF-295 CNS = tested on: SF-295 CNS
HOP-18 NSCLC = tested on: HOP-18 NSCLC
CCRF-CEM leukemia = tested on: CCRF-CEM leukemia
SN12C renal = tested on: SN12C renal
786-0 renal = tested on: 786-0 renal
OVCAR-8 ovarian = tested on: OVCAR-8 ovarian
XF 498 CNS = tested on: XF 498 CNS
NCI-H23 lung = tested on: NCI-H23 lung
UACC-62 melanoma = tested on: UACC-62 melanoma
LOX IMVI melanoma = tested on: LOX IMVI melanoma
KM20L2 colon = tested on: KM20L2 colon
SNB-78 CNS = tested on: SNB-78 CNS
DMS 273 small cell lung = tested on: DMS 273 small cell lung
OVCAR-5 ovarian = tested on: OVCAR-5 ovarian
NCI-H460 lung = tested on: NCI-H460 lung
SW-620 colon = tested on: SW-620 colon
OVCAR-4 ovarian = tested on: OVCAR-4 ovarian
SK-MEL-5 melanoma = tested on: SK-MEL-5 melanoma
IGROV1 ovarian = tested on: IGROV1 ovarian
CAKI-1 renal = tested on: CAKI-1 renal
SK-OV-3 ovarian = tested on: SK-OV-3 ovarian
A549 NSCLC = tested on: A549 NSCLC
NCI-H226 lung = tested on: NCI-H226 lung
SK-MEL-28 melanoma = tested on: SK-MEL-28 melanoma
SF-268 CNS = tested on: SF-268 CNS
RPMI-8226 leukemia = tested on: RPMI-8226 leukemia
KM12 colon = tested on: KM12 colon
SF-539 CNS = tested on: SF-539 CNS
K-562 leukemia = tested on: K-562 leukemia
HCT-15 colon = tested on: HCT-15 colon
HOP-92 NSCLC = tested on: HOP-92 NSCLC
OVCAR-3 ovarian = tested on: OVCAR-3 ovarian
UO-31 renal = tested on: UO-31 renal
COLO 205 colon = tested on: COLO 205 colon
SNB-19 CNS = tested on: SNB-19 CNS
EKVX NSCLC = tested on: EKVX NSCLC
M19-MEL melanoma = tested on: M19-MEL melanoma
MALME-3M melanoma = tested on: MALME-3M melanoma
HCT-116 colon = tested on: HCT-116 colon
HT29 colon = tested on: HT29 colon
SNB-75 CNS = tested on: SNB-75 CNS
U251 CNS = tested on: U251 CNS
ACHN renal = tested on: ACHN renal
M14 melanoma = tested on: M14 melanoma
SK-MEL-2 melanoma = tested on: SK-MEL-2 melanoma
UACC-257 melanoma = tested on: UACC-257 melanoma
TK-10 renal = tested on: TK-10 renal
HOP-62 NSCLC = tested on: HOP-62 NSCLC
MOLT-4 leukemia = tested on: MOLT-4 leukemia
NCI-H522 lung = tested on: NCI-H522 lung
HL-60(TB) leukemia = tested on: HL-60(TB) leukemia
SR leukemia = tested on: SR leukemia
LXFL 529 NSCLC = tested on: LXFL 529 NSCLC
RXF 393 renal = tested on: RXF 393 renal
DU-145 prostate = tested on: DU-145 prostate

## CN1Nc2ccccc2CC1=O
A498 renal
  TGI: > 100 µM
HCC-2998 colon
  TGI: > 100 µM
DLD-1 colon
  TGI: > 100 µM
DMS 114 small cell lung
  TGI: > 100 µM
SF-295 CNS
  TGI: > 100 µM
HOP-18 NSCLC
  TGI: > 100 µM
CCRF-CEM leukemia
  TGI: > 100 µM
SN12C renal
  TGI: > 100 µM
786-0 renal
  TGI: > 100 µM
OVCAR-8 ovarian
  TGI: > 100 µM
XF 498 CNS
  TGI: > 100 µM
NCI-H23 lung
  TGI: > 100 µM
UACC-62 melanoma
  TGI: > 100 µM
LOX IMVI melanoma
  TGI: > 100 µM
KM20L2 colon
  TGI: > 100 µM
SNB-78 CNS
  TGI: > 100 µM
DMS 273 small cell lung
  TGI: > 100 µM
OVCAR-5 ovarian
  TGI: > 100 µM
NCI-H460 lung
  TGI: > 100 µM
SW-620 colon
  TGI: > 100 µM
OVCAR-4 ovarian
  TGI: > 100 µM
SK-MEL-5 melanoma
  TGI: > 100 µM
IGROV1 ovarian
  TGI: > 100 µM
CAKI-1 renal
  TGI: > 100 µM
SK-OV-3 ovarian
  TGI: > 100 µM
A549 NSCLC
  TGI: > 100 µM
NCI-H226 lung
  TGI: > 100 µM
SK-MEL-28 melanoma
  TGI: > 100 µM
SF-268 CNS
  TGI: > 100 µM
RPMI-8226 leukemia
  TGI: > 100 µM
KM12 colon
  TGI: > 100 µM
SF-539 CNS
  TGI: > 100 µM
K-562 leukemia
  TGI: > 100 µM
HCT-15 colon
  TGI: > 100 µM
HOP-92 NSCLC
  TGI: > 100 µM
OVCAR-3 ovarian
  TGI: > 100 µM
UO-31 renal
  TGI: > 100 µM
COLO 205 colon
  TGI: > 100 µM
SNB-19 CNS
  TGI: > 100 µM
EKVX NSCLC
  TGI: > 100 µM
M19-MEL melanoma
  TGI: > 100 µM
MALME-3M melanoma
  TGI: > 100 µM
HCT-116 colon
  TGI: > 100 µM
HT29 colon
  TGI: > 100 µM
SNB-75 CNS
  TGI: > 100 µM
U251 CNS
  TGI: > 100 µM
ACHN renal
  TGI: > 100 µM
M14 melanoma
  TGI: > 100 µM
SK-MEL-2 melanoma
  TGI: > 100 µM
UACC-257 melanoma
  TGI: > 100 µM
TK-10 renal
  TGI: > 100 µM
HOP-62 NSCLC
  TGI: > 100 µM

## CCOc1ccc(NC(=O)CC2SC(=Nc3ccc(C)cc3C)NC2=O)cc1 (configuration not stated)
A498 renal
  TGI: > 100 µM
HCC-2998 colon
  TGI: > 100 µM
DLD-1 colon
  TGI: > 100 µM
SF-295 CNS
  TGI: > 100 µM
MOLT-4 leukemia
  TGI: 65 µM
CCRF-CEM leukemia
  TGI: > 100 µM
SN12C renal
  TGI: > 100 µM
786-0 renal
  TGI: > 100 µM
OVCAR-8 ovarian
  TGI: > 100 µM
NCI-H522 lung
  TGI: > 100 µM
XF 498 CNS
  TGI: > 100 µM
NCI-H23 lung
  TGI: > 100 µM
UACC-62 melanoma
  TGI: > 100 µM
LOX IMVI melanoma
  TGI: > 100 µM
KM20L2 colon
  TGI: > 100 µM
SNB-78 CNS
  TGI: > 100 µM
DMS 273 small cell lung
  TGI: > 100 µM
OVCAR-5 ovarian
  TGI: > 100 µM
NCI-H460 lung
  TGI: > 100 µM
SW-620 colon
  TGI: > 100 µM
OVCAR-4 ovarian
  TGI: > 100 µM
SK-MEL-5 melanoma
  TGI: > 100 µM
IGROV1 ovarian
  TGI: > 100 µM
CAKI-1 renal
  TGI: > 100 µM
A549 NSCLC
  TGI: > 100 µM
NCI-H226 lung
  TGI: > 100 µM
SK-MEL-28 melanoma
  TGI: > 100 µM
SF-268 CNS
  TGI: > 100 µM
RPMI-8226 leukemia
  TGI: > 100 µM
HL-60(TB) leukemia
  TGI: > 100 µM
SR leukemia
  TGI: > 100 µM
LXFL 529 NSCLC
  TGI: > 100 µM
SF-539 CNS
  TGI: 63.7 µM
RXF 393 renal
  TGI: > 100 µM
K-562 leukemia
  TGI: > 100 µM
HCT-15 colon
  TGI: > 100 µM
HOP-92 NSCLC
  TGI: > 100 µM
OVCAR-3 ovarian
  TGI: > 100 µM
UO-31 renal
  TGI: > 100 µM
SNB-19 CNS
  TGI: > 100 µM
EKVX NSCLC
  TGI: > 100 µM
M19-MEL melanoma
  TGI: > 100 µM
MALME-3M melanoma
  TGI: > 100 µM
HCT-116 colon
  TGI: > 100 µM
HT29 colon
  TGI: > 100 µM
SNB-75 CNS
  TGI: > 100 µM
U251 CNS
  TGI: > 100 µM
ACHN renal
  TGI: > 100 µM
M14 melanoma
  TGI: > 100 µM
SK-MEL-2 melanoma
  TGI: > 100 µM
UACC-257 melanoma
  TGI: > 100 µM
TK-10 renal
  TGI: > 100 µM

## CCCC(=O)OC[n+]1ccc2c(C)c3[nH]c4ccccc4c3c(C)c2c1
MOLT-4 leukemia
  TGI: 3.04 µM
HOP-18 NSCLC
  TGI: 2.99 µM
CCRF-CEM leukemia
  TGI: > 100 µM
OVCAR-5 ovarian
  TGI: 2.34 µM
HL-60(TB) leukemia
  TGI: > 100 µM
SR leukemia
  TGI: 17.5 µM
KM12 colon
  TGI: 1.8 µM
K-562 leukemia
  TGI: > 100 µM
UO-31 renal
  TGI: 5.59 µM
M19-MEL melanoma
  TGI: > 100 µM
HT29 colon
  TGI: > 100 µM
SNB-75 CNS
  TGI: > 100 µM
TK-10 renal
  TGI: 5.5 µM

## C=C(CN(C)C)C(=O)c1ccc(C(=O)C(=C)CN(C)C)cc1
A498 renal
  TGI: > 100 µM
HCC-2998 colon
  TGI: > 100 µM
DLD-1 colon
  TGI: > 100 µM
SF-295 CNS
  TGI: > 100 µM
MOLT-4 leukemia
  TGI: > 100 µM
HOP-18 NSCLC
  TGI: > 100 µM
CCRF-CEM leukemia
  TGI: > 100 µM
SN12C renal
  TGI: > 100 µM
786-0 renal
  TGI: > 100 µM
OVCAR-8 ovarian
  TGI: > 100 µM
NCI-H522 lung
  TGI: > 100 µM
XF 498 CNS
  TGI: > 100 µM
NCI-H23 lung
  TGI: > 100 µM
UACC-62 melanoma
  TGI: > 100 µM
LOX IMVI melanoma
  TGI: > 100 µM
KM20L2 colon
  TGI: > 100 µM
DU-145 prostate
  TGI: > 100 µM
OVCAR-5 ovarian
  TGI: > 100 µM
NCI-H460 lung
  TGI: > 100 µM
SW-620 colon
  TGI: > 100 µM
OVCAR-4 ovarian
  TGI: > 100 µM
SK-MEL-5 melanoma
  TGI: > 100 µM
IGROV1 ovarian
  TGI: > 100 µM
CAKI-1 renal
  TGI: > 100 µM
SK-OV-3 ovarian
  TGI: > 100 µM
A549 NSCLC
  TGI: > 100 µM
NCI-H226 lung
  TGI: > 100 µM
SK-MEL-28 melanoma
  TGI: > 100 µM
SF-268 CNS
  TGI: > 100 µM
RPMI-8226 leukemia
  TGI: > 100 µM
HL-60(TB) leukemia
  TGI: > 100 µM
SR leukemia
  TGI: > 100 µM
LXFL 529 NSCLC
  TGI: > 100 µM
KM12 colon
  TGI: > 100 µM
SF-539 CNS
  TGI: > 100 µM
RXF 393 renal
  TGI: > 100 µM
K-562 leukemia
  TGI: > 100 µM
HCT-15 colon
  TGI: > 100 µM
HOP-92 NSCLC
  TGI: > 100 µM
OVCAR-3 ovarian
  TGI: > 100 µM
UO-31 renal
  TGI: > 100 µM
COLO 205 colon
  TGI: > 100 µM
SNB-19 CNS
  TGI: > 100 µM
EKVX NSCLC
  TGI: > 100 µM
M19-MEL melanoma
  TGI: > 100 µM
MALME-3M melanoma
  TGI: > 100 µM
HCT-116 colon
  TGI: > 100 µM
HT29 colon
  TGI: > 100 µM
SNB-75 CNS
  TGI: > 100 µM
U251 CNS
  TGI: > 100 µM
ACHN renal
  TGI: > 100 µM
M14 melanoma
  TGI: > 100 µM
SK-MEL-2 melanoma
  TGI: > 100 µM
UACC-257 melanoma
  TGI: > 100 µM
TK-10 renal
  TGI: > 100 µM
